Results taken from PubChem BioAssay (NCI).
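Cultured in 96-well plates, cells were exposed to test compound for 48 hours across five concentrations. TGI denotes the concentration required for complete inhibition of growth.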

Legend:
Assay in all cases: NCI tumour cell line growth inhibition, 48 h
U251 CNS = test system: U251 CNS
OVCAR-3 ovarian = test system: OVCAR-3 ovarian
PC-3 prostate = test system: PC-3 prostate
MDA-MB-435 = test system: MDA-MB-435
MDA-MB-231 breast = test system: MDA-MB-231 breast
A498 renal = test system: A498 renal
UO-31 renal = test system: UO-31 renal
MALME-3M melanoma = test system: MALME-3M melanoma
SF-295 CNS = test system: SF-295 CNS
ACHN renal = test system: ACHN renal
NCI-H460 lung = test system: NCI-H460 lung
SR leukemia = test system: SR leukemia
SK-MEL-2 melanoma = test system: SK-MEL-2 melanoma
HCC-2998 colon = test system: HCC-2998 colon
SK-MEL-5 melanoma = test system: SK-MEL-5 melanoma
LOX IMVI melanoma = test system: LOX IMVI melanoma
SF-539 CNS = test system: SF-539 CNS
HL-60(TB) leukemia = test system: HL-60(TB) leukemia

Structure (SMILES)	TGI (U251 CNS) [µM]	TGI (OVCAR-3 ovarian) [µM]	TGI (PC-3 prostate) [µM]	TGI (MDA-MB-435) [µM]	TGI (MDA-MB-231 breast) [µM]	TGI (A498 renal) [µM]	TGI (UO-31 renal) [µM]	TGI (MALME-3M melanoma) [µM]	TGI (SF-295 CNS) [µM]	TGI (ACHN renal) [µM]	TGI (NCI-H460 lung) [µM]	TGI (SR leukemia) [µM]	TGI (SK-MEL-2 melanoma) [µM]	TGI (HCC-2998 colon) [µM]	TGI (SK-MEL-5 melanoma) [µM]	TGI (LOX IMVI melanoma) [µM]	TGI (SF-539 CNS) [µM]	TGI (HL-60(TB) leukemia) [µM]
O=c1c2c3c(sc2nc2n1N=CN(c1ccc(F)cc1)C2)CCCC3	> 100	> 100	> 100	> 100	> 100	> 100	> 100	> 100	> 100	> 100	> 100	> 100	> 100	> 100	> 100	> 100	–	–
C=CCCC(=O)C(=[N+]=[N-])C(=O)CCC(=O)c1ccccc1	> 10	> 10	> 10	> 10	> 10	> 10	> 10	> 10	> 10	> 10	> 10	> 10	> 10	–	> 10	> 10	> 10	–
O=C(C1OC1c1cccc([N+](=O)[O-])c1)C12CC3CC(CC(C3)C1)C2 (stereo not drawn)	9.64	12.5	16.1	12.2	17.5	14.2	21	27.9	17.3	23	14.5	–	28.6	14.5	22.9	3.84	22.6	15.8
CCOC(=O)/C=C(/C(=O)OCC)n1ccc(=O)n(Cc2cnnn2CCCCOC(C)=O)c1=O	> 100	> 100	> 100	> 100	> 100	–	> 100	–	> 100	> 100	> 100	> 100	> 100	> 100	> 100	> 100	> 100	–
CCOc1cc(-c2nc3cc(F)ccc3s2)ccc1O	41.3	35	28.7	33.8	48.4	26.2	25.8	29.8	35.2	29.9	34.9	–	31.5	41.6	32.2	33.4	34.2	–
CC(=O)n1nc(-c2ccc3ccccc3c2)nc1C	–	> 100	> 100	> 100	> 100	–	> 100	> 100	> 100	> 100	> 100	> 100	> 100	> 100	> 100	> 100	> 100	> 100
O=C(Nc1ccc2cc3ccccc3cc2c1)c1cc2c(cc1Cl)Sc1nccn1S2(=O)=O	> 100	> 100	52.6	> 100	60.1	–	> 100	> 100	> 100	> 100	> 100	> 100	> 100	95.8	> 100	> 100	33.8	46.9
CC1(C)OC2OC(COC(=O)c3ccc(C#N)cc3)C3OC(C)(C)OC3C2O1 (stereo not drawn)	> 75	> 75	> 75	> 75	> 75	> 75	> 75	> 75	> 75	> 75	–	> 75	> 75	> 75	> 75	> 75	> 75	–
CC(=O)NC1(C)C(C)C2CC1C(C)C2(C)C (stereo not drawn)	> 100	> 100	> 100	> 100	> 100	> 100	> 100	> 100	> 100	> 100	> 100	> 100	–	> 100	> 100	–	> 100	> 100
O=P1(Cc2ccccc2)c2ccccc2-c2ccccc21	70.5	> 55.4	> 100	12.3	> 79.4	38.1	69.2	12.7	40.5	52.1	48.3	26.9	7.49	16.7	4.18	23.1	39.5	–
Cc1cn(C2OC(CO)C(O)C2F)c(=O)[nH]c1=O (stereo not drawn)	> 100	> 100	> 100	> 100	> 100	> 100	> 100	> 100	> 100	> 100	> 100	–	> 100	> 100	> 100	> 100	> 100	> 100
COC(=O)C1(O)C(c2ccccc2)NC2(C)CCCC21 (stereo not drawn)	> 100	–	> 100	> 100	> 100	> 100	> 100	> 100	> 100	> 100	–	–	> 100	–	> 100	> 100	> 100	> 100
CN(C)N=Nc1ccc2[nH]c(=O)[nH]c2c1	> 100	> 100	> 100	> 100	> 100	> 100	> 100	> 100	> 100	> 100	> 100	–	> 100	> 100	> 100	> 100	> 100	83.7
O=[N+]([O-])C(C(Cl)=C(Cl)Cl)=C(n1cncn1)n1cncn1	> 87.1	38.4	> 100	> 71.8	39.3	> 100	34.9	31.2	> 100	37.5	> 100	> 100	> 100	98.1	31.8	44.9	41.2	–
COc1ccc(CCN2C(=O)CC34C=CC(CC3C2=O)O4)cc1OC (stereo not drawn)	> 100	> 100	> 100	> 100	> 100	> 100	> 100	–	> 100	> 100	–	> 100	> 100	> 100	> 100	> 100	> 100	> 100
COc1ccc2oc(C(=O)N3CC(CCl)c4ccc(N)cc43)cc2c1 (stereo not drawn)	15.2	> 100	> 21.3	1.24	> 26.7	0.865	0.617	–	> 100	–	1.74	4.76	0.72	1.19	–	32	5.66	15.6
COCOc1cc(OC)ccc1C/C(=N/O)C(=O)OC	> 100	> 100	> 100	> 100	> 100	–	> 100	> 100	> 100	> 100	> 100	–	> 100	> 100	> 100	> 100	> 100	> 100
C1=NCCOCCN=Cc2ccc(cc2)OCc2cccc(n2)COc2ccc1cc2	> 100	> 100	> 100	> 100	> 100	> 100	> 100	> 100	> 100	> 100	> 100	> 100	> 100	–	–	–	> 100	> 100
Cc1ccc(SCC(OCn2cnc3c(Cl)nc(N)nc32)[C@H](C)F)cc1 (stereo partly drawn)	> 100	> 100	> 100	> 100	> 100	–	> 100	> 100	> 100	> 100	> 100	> 100	> 100	> 100	47.6	> 100	> 100	96.8
C[n+]1cn(-c2nc3ccccc3nc2[N-]S(=O)(=O)c2ccccc2)c2ccccc21	> 100	> 100	> 100	> 100	> 100	–	> 100	> 100	> 100	> 100	> 100	> 100	> 100	> 100	> 100	> 100	> 100	> 100
COc1ccc2c(c1OC)C(=O)O[C@@H]2[C@H]1c2c(cc3c(c2OC)OCO3)CCN1C	> 100	49.9	> 100	32.2	> 100	> 100	> 100	79.3	> 100	> 100	> 100	> 100	> 100	> 100	> 100	> 100	> 100	–
C[C@H]1O[C@@H](C(C)(C)C)OC(=O)[C@@H]1C(OC(=O)c1ccccc1)c1cccc2ccccc12 (stereo partly drawn)	> 100	> 100	> 100	> 100	> 100	–	> 100	> 100	> 100	> 100	> 100	> 100	> 100	> 100	> 100	> 100	> 100	–
[N-]=[N+]=Nc1ccc2c(c1)Sc1ccccc1N2CCCCN1CCN(C(=O)CCNC(=O)Cc2ccc(C(=O)c3ccccc3)cc2)CC1	> 24.6	18.3	> 21.3	6.44	16.9	> 35.9	> 100	10.7	10.1	> 60.5	> 23.3	–	8.97	6.08	4.39	5.17	17.2	5.57
O=C(NC1(C(=O)O)CCCC1)c1ccccc1	> 100	> 100	> 100	> 100	> 100	> 100	> 100	–	> 100	> 100	> 100	–	> 100	> 100	> 100	> 100	> 100	> 100
N#Cc1c(-c2ccccc2)cc(Nc2ccc(Cl)cc2)n2c1nc1ccccc12	97.5	11	> 48	> 100	> 47.4	> 100	> 100	> 100	> 33.3	> 100	> 37.6	20.3	> 83.6	> 100	4.98	> 100	> 49.5	–
CN(C)c1ccc(/C=C(\NC(=O)c2ccccc2)C(=O)NC(Cc2c[nH]c3ccccc23)C(=O)O)cc1 (stereo not drawn)	> 100	> 100	> 100	> 100	> 100	> 100	> 100	> 100	> 100	> 100	> 100	–	> 100	> 100	> 100	> 100	> 100	> 100
C=CCN(CCN(CC=C)S(=O)(=O)c1ccc(C)cc1)S(=O)(=O)c1ccc(C)cc1	> 100	> 100	> 100	> 100	> 100	> 100	> 100	–	> 100	> 100	> 100	> 100	–	> 100	> 100	> 100	–	–
CCOC1CCN(C(=O)c2ccccc2)O1 (stereo not drawn)	–	> 10	> 10	> 10	> 10	–	> 10	> 10	> 10	> 10	> 10	> 10	> 10	> 10	> 10	> 10	> 10	> 10
